Measured values from US12697335B2, “Method for treating immune toxicities induced by immune checkpoint inhibitors” (ASSISTANCE PUBLIQUE—HÔPITAUX DE PARIS, priority 2020, dated 2026).

Key:
[1] = Eleven ICI patients with irAE treated with ruxolitinib in combination with corticosteroids and abatacept
[2] = human, in vivo; cited from earlier work
[3] = Adverse events on nivolumab second-line therapy for metastatic pulmonary adenocarcinoma; assay type: in vivo, human; conditions: after 2 treatments with nivolumab (4 weeks after treatment initiation)
Excerpt: Myositis was suspected due to increased creatine kinase levels and confirmed by muscle biopsy. Myocarditis was confirmed with troponin increase, premature ventricular contractions and deterioration of left-ventricular ejection fraction with no signs of acute coronary syndrome on angiogram.

With `N#CC[C@H](C1CCCC1)n1cc(-c2ncnc3[nH]ccc23)cn1` [Ruxolitinib, (3R)-3-Cyclopentyl-3-[4-(7H-pyrrolo[2,3-d]pyrimidin-4-yl)pyrazol-1-yl]propanenitrile] the “deaths not related to irAE (hemorrhagic choc n=1; COVID19 n=2)” value ([1]; first 3 months follow-up, 11 patients) was “three”, the “evolution of concurrent irAE” value ([1]; first 3 months follow-up, 11 patients, myasthenia like symptoms, hepatitis, thyroiditis) was “evolved favorably” and the “death related to an irAE” value ([1]; human, in vivo) was “no death”. For the same compound, the “effect on tumor progression” value (human, in vivo) was “no effect”, the tumor progression (human, in vivo) was “no evidence of tumor progression” and the relief of myotoxicity (oral ruxolitinib, summary of the case) was “symptomatic relief”. The oculomotor disorders (person, ruxolitinib 15 mg twice daily) was “improvement”, the troponin (person, ruxolitinib 15 mg twice daily, corticosteroids tapered) was “prompt decrease” and the myotoxicity outcome (ruxolitinib continued for 1 month at 15 mg twice daily) was “complete resolution”.

In the case of abatacept, the “effect in patients with myotoxicity” value [2] is listed as “positive effect”.

For “nivolumab: PD-1 inhibitor: IgG4 PD1 antibody”, the adverse events developed [3] was “developed myalgia, diplopia and bilateral ptosis”.
